Assay results taken from ChEMBL document CHEMBL1201862, “PubChem BioAssay data set” (2004).
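Test compounds were applied to cells in 96-well plates for 48 hours at 5 doses. The concentration for 50% growth inhibition is given as GI50.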 Activity calls are given as the source filed them. No stated cut-off is given here; in the data, active = GI50 up to about 1.1 µM and inactive = higher.

Assays:
Experiment in all cases: DTP human tumour cell line panel, 48 h
[1] = test system: NCI/ADR-RES
[2] = test system: SK-MEL-2
[3] = test system: ACHN
[4] = test system: MCF7
[5] = test system: SF-295
[6] = test system: NCI-H460
[7] = test system: UACC-62
[8] = test system: SNB-75
[9] = test system: MDA-MB-435
[10] = test system: OVCAR-5
[11] = test system: BT-549
[12] = test system: SK-OV-3
[13] = test system: UACC-257
[14] = test system: DU-145
[15] = test system: M14
[16] = test system: TK-10
[17] = test system: SW-620
[18] = test system: 786-0
[19] = test system: HCT-15
[20] = test system: Hs-578T

`CCOc1nc(N)nc(C)c1/N=N/c1ccc(Cl)cc1` was tested, and the GI50 [1] was > 100 µM (inactive), the GI50 [2] was > 100 µM (inactive) and the GI50 [3] was > 100 µM (inactive). For the same compound, the GI50 [4] was > 100 µM (inactive), the GI50 [5] was 25.5 µM (inactive) and the GI50 [6] was > 100 µM (inactive). The GI50 [7] was 94.4 µM (inactive), the GI50 [8] was > 100 µM (inactive) and the GI50 [9] was > 100 µM (inactive). For the same compound, the GI50 [10] was > 100 µM (inactive), the GI50 [11] was 59 µM (inactive) and the GI50 [12] was > 100 µM (inactive). The GI50 [13] was > 100 µM (inactive), the GI50 [14] was > 100 µM (inactive) and the GI50 [15] was > 100 µM (inactive). For the same compound, the GI50 [16] was > 100 µM (inactive), the GI50 [17] was > 100 µM (inactive) and the GI50 [18] was > 100 µM (inactive). The GI50 [19] was over 100 µM and the GI50 [20] was 0.124 µM (active).

For `CC(C)NC(=O)OCc1c(COC(=O)NC(C)C)c(-c2ccc[n+](COC(=O)C(C)C)c2)n2c1CCC2`, the GI50 [1] was 63.7 µM (inactive), the GI50 [2] was > 83.4 µM (inactive) and the GI50 [3] was 29.1 µM (inactive). For the same compound, the GI50 [4] was 55.6 µM (inactive), the GI50 [5] was 68.9 µM (inactive) and the GI50 [6] was 21.6 µM (inactive). For the same compound, the GI50 [7] was 26.9 µM (inactive), the GI50 [8] was 52.1 µM (inactive) and the GI50 [9] was > 100 µM (inactive). The GI50 [10] was > 100 µM (inactive), the GI50 [11] was 81.1 µM (inactive) and the GI50 [12] was > 100 µM (inactive). The GI50 [13] was > 100 µM (inactive), the GI50 [14] was 65.8 µM (inactive) and the GI50 [15] was 61.5 µM (inactive). For the same compound, the GI50 [16] was > 91.4 µM (inactive), the GI50 [17] was 55.3 µM (inactive) and the GI50 [18] was 34.6 µM (inactive). For the same compound, the GI50 [19] was over 71.9 µM and the GI50 [20] was > 100 µM (inactive).

In the case of `COc1cccc2c1cc([N+](=O)[O-])c1c(C(=O)O)cc3c(c12)OCO3` [ARISTOLOCHIC ACID], the GI50 [1] is reported as 38.1 µM (inactive), the GI50 [2] is reported as 57.8 µM (inactive) and the GI50 [3] is reported as 41.6 µM (inactive). For the same compound, the GI50 [4] was 49.4 µM (inactive), the GI50 [5] was 32.4 µM (inactive) and the GI50 [6] was 27.7 µM (inactive). For the same compound, the GI50 [7] was 31.4 µM (inactive), the GI50 [8] was 30.9 µM (inactive) and the GI50 [9] was 54.8 µM (inactive). For the same compound, the GI50 [10] was 25.4 µM (inactive), the GI50 [11] was 39.4 µM (inactive) and the GI50 [12] was 49.5 µM (inactive). The GI50 [13] was 97.7 µM (inactive), the GI50 [14] was 30.1 µM (inactive) and the GI50 [15] was 43.9 µM (inactive). For the same compound, the GI50 [16] was 46.9 µM (inactive), the GI50 [17] was 32 µM (inactive) and the GI50 [18] was 37.2 µM (inactive). The GI50 [19] was 18.2 µM and the GI50 [20] was 52.8 µM (inactive).

In the case of `Clc1ccc(COC(Cn2ccnc2)c2ccc(Cl)cc2Cl)cc1` (stereo not given) [ECONAZOLE], the GI50 [1] is reported as 4.44 µM (inactive), the GI50 [2] is reported as 14.8 µM (inactive) and the GI50 [3] is reported as 15.5 µM (inactive). For the same compound, the GI50 [4] was 12.4 µM (inactive), the GI50 [5] was 10.8 µM (inactive) and the GI50 [6] was 11.9 µM (inactive). For the same compound, the GI50 [7] was 12.1 µM (inactive), the GI50 [8] was 13.7 µM (inactive) and the GI50 [9] was 11.8 µM (inactive). The GI50 [10] was 11.5 µM (inactive), the GI50 [11] was 18.9 µM (inactive) and the GI50 [12] was 13.8 µM (inactive). For the same compound, the GI50 [13] was 13.1 µM (inactive), the GI50 [14] was 16.5 µM (inactive) and the GI50 [15] was 15 µM (inactive). For the same compound, the GI50 [16] was 14 µM (inactive), the GI50 [17] was 12.1 µM (inactive) and the GI50 [18] was 13.1 µM (inactive). The GI50 [19] was 12.7 µM and the GI50 [20] was 17 µM (inactive).
